Experimental data from patent US9018173B2, “Materials and methods for suppressing inflammatory and neuropathic pain” (Indiana University Research and Technology Corp., priority 2010, dated 2015).
Residues, ends and D or L forms follow the SMILES beside them. No end group written: not given here.

Experiments:
[1] = Biodistribution after i.p. injection (dot blot, FITC fluorescence); conditions: 25 mg/kg i.p.
[2] = system: depression/despair-associated behavior; experiment: Tail suspension test (TST); assay type: in vivo, C57BL6 mice
Procedure: The light-dark box test and the elevated plus maze were used as measures of anxiety-associated behaviors. The tail suspension test was performed to evaluate despair- and depression-associated behavior.
Depression/Despair-behavior testing. Since rodents such as mice and rats display immobile postures when placed in inescapable stressful situations, immobility behavior in the tail suspension test (TST) or forced swim test (FST) is used as a measure of “depression” or “despair”-associated behavior. Furthermore, administering antidepressant treatments prior to testing reduces immobility behavior. Therefore TST and FST are often used to screen novel drugs for depressant or anti-depressant properties.
Tail suspension test as a measure of depression-associated behavior. Immediately following the EPM test, the TST was conducted according to standard procedure between 8:00 AM and 2:00 PM. Cryan, J. F., Mombereau, C., & Vassout, A. The tail suspension test as a model for assessing antidepressant activity: review of pharmacological and genetic studies in mice. Neurosci. Biobehay. Rev. 29, 571-625 (2005). Briefly, each mouse was suspended by the tail at a height of 40 cm by taping the rail to a horizontal bar so that the tail is vertical to the bar. Behavior was video recorded for 5 min and later analyzed by an experimenter, whom was blind to the treatments. […] If a mouse climbed its tail the mouse was gently pulled back down and the trial continued. Mice that climbed their tails for more than 20% of the trial (i.e. >60 seconds) were eliminated from the final analysis. Duration and frequency of immobility was the main parameters measured. Mice injected with the scrambled control peptide were immobile approximately 26% of the TST duration which is equivalent to baseline immobility durations (approximately 27%) observed in C57B16 mice in another recent study.

[3] = system: anxiety-associated behavior; experiment: Elevated plus maze (EPM); assay type: in vivo, C57BL6 mice
[4] = system: anxiety-associated behavior; experiment: Light-Dark Box test (LDBT); assay type: in vivo, C57BL6 mice
Procedure: The light-dark box test and the elevated plus maze were used as measures of anxiety-associated behaviors. The tail suspension test was performed to evaluate despair- and depression-associated behavior. Anxiety-behavior testing Anxiety occurs when there is conflict between risk and reward. The Light-Dark Box test (LDBT) and the elevated plus maze (EPM) are accepted tests of anxiety-associated behavior that assess the conflict mice have against hiding in enclosed dark areas (i.e., dark box or closed arm) and their tendency to explore novel environments (i.e., white box or open arm). Lalonde, R. & Strazielle, C. […] J. Neurosci. Methods. 171, 48-52 (2008). These tests are also sensitive to anxiolytic drug treatments. Light-Dark Box test as a measure of anxiety-associated behavior. For the light-dark box test (LDBT), there were two adjoined light and dark compartments boxes with a 7 cm square opening to allow mice to move between them. The black box was covered (20 cm×40 cm×30 cm height) and the white box (20 cm×40 cm×30 cm height) was open and illuminated (40 W). Each mouse was placed into the white compartment and the white compartment was video recorded for later analyses using ANY-maze software (version 4.75, Stoelting, Wood Dale, Ill.) which is a video tracking system designed to automate testing in behavioral experiments. The main parameters were duration of time spent in the light box; the latency to enter the dark box; and the number of transitions between the light and dark box.

[5] = system: capsaicin-induced meningeal blood flow changes
[6] = C57BL6 mice, 10 mg/kg i.p., 1 h after injection, 5 min test

Compound | tissue distribution (dot blot, anti-TAT antibody) ([1]; 15 min post-injection) | tissue distribution (dot blot, anti-TAT antibody) ([1]; 1 h post-injection) | Tail Suspension Test: Active [2, 6] [s] | TST immobility as share of test duration ([2]; mouse, in vivo) | EPM time in the open arm compared to the closed arm ([3]; 10 mg/kg) | Elevated Plus Maze: Closed arm entries [3, 6] | Elevated Plus Maze: Closed arm latency to enter [3, 6] [s] | Elevated Plus Maze: Closed arm latency to exit [3, 6] [s] | Elevated Plus Maze: Open arm entries [3, 6] | Elevated Plus Maze: Open arm latency to enter [3, 6] [s] | Elevated Plus Maze: Open arm latency to exit [3, 6] [s] | Light-Dark Box: Dark box latency to exit [4, 6] [s] | Light-Dark Box: Light box entries [4, 6] | LDBT time in the light box ([4]; mouse, in vivo) | capsaicin-induced blood flow changes (effect in words) ([5]; dural application prior to nasal capsaicin 100 nM) | capsaicin-induced blood flow change after CGRP antagonist ([5]; prior topical administration, n=3) [%]
CC[C@H](C)[C@H](NC(=O)[C@@H](NC(=O)[C@H](CC(C)C)NC(=O)[C@H](C)NC(=O)[C@H](CCC(=O)O)NC(=O)[C@H](Cc1ccccc1)NC(=O)[C@H](Cc1ccc(O)cc1)NC(=O)[C@H](CC(C)C)NC(=O)[C@H](CCSC)NC(=O)[C@H](CCC(=O)O)NC(=O)[C@H](CCCCN)NC(=O)[C@H](C)NC(=O)[C@H](CCC(=O)O)NC(=O)[C@H](Cc1c[nH]c2ccccc12)NC(=O)[C@H](CCCNC(=N)N)NC(=O)[C@H](CCCNC(=N)N)NC(=O)[C@H](CCCNC(=N)N)NC(=O)[C@H](CCC(N)=O)NC(=O)[C@H](CCCNC(=N)N)NC(=O)[C@H](CCCNC(=N)N)NC(=O)[C@H](CCCCN)NC(=O)[C@H](CCCCN)NC(=O)[C@H](CCCNC(=N)N)NC(=O)CNC(=O)[C@@H](N)Cc1ccc(O)cc1)C(C)C)C(=O)N[C@@H](CCC(=O)O)C(=O)O [TAT-Scramble, reference compound] (H-YGRKKRRQRRRWEAKEMLYFEALVIE-OH; N-terminus and C-terminus assumed) | detected in spleen and largely concentrated in lumbar dorsal root ganglion (DRG) and lumbar section of the spinal cord | also detected in kidney, brain, spinal cord and was abundant in the DRG | 221.0 ± 11.3 | approximately 26% | approximately 30% | 16.3 ± 2.0 | 6.3 ± 2.5 | 14.7 ± 3.0 | 11.5 ± 1.6 | 5.9 ± 2.3 | 14.5 ± 3.1 | 53.0 ± 11.5 | 8.2 ± 0.8 | approximately 25% | – | –
CGRP8-37: CGRP antagonist (VTHRLAGLLSRSGGVVKNNFVPTNVGSKAF; ends and bridges not checked; UniProt P06881 90-119, looked up, fragment) | – | – | – | – | – | – | – | – | – | – | – | – | – | – | blocked | 5±4
